In patent US20080119567A1, “Methods of use of herbal compositions” (priority 2003, published 2008):
Where “and” joins values, the source holds several entries; their conditions need not be identical. Equal values may be shown once.

What was measured:
[1] = test system: Helicobacter pylori (clinical isolate strain); assay: Gastric ulceration after Helicobacter pylori inoculation in mice (Example 11); type: in vivo, ICR derived mice; settings: 24.5 ml/kg × 2 × 7 PO (text: 24.5 mg/kg)
Description: Seven groups of 5 male ICR derived mice weighing 24±2 grams were fasted for 18 hours before the intragastric inoculation of Helicobacter pylori (clinical isolate strain) in suspension at 1.5×10^9 CFU/0.4 ml/mouse. […] Subsequently, test substances and vehicle were each administered orally twice daily (9:00 A.M. and 16:00 P.M.) for […]. omeprazole 1 mg/kg and clarithromycin 10 mg/kg in combination was used as a positive control agent and was administered orally to test animals once daily (9:00 A.M.) for 7 consecutive days. Seven days after infection, on day eight, all animals with overnight fasting were sacrificed and the stomachs were dissected along the greater curvature. Gastric ulceration was scored at four levels according to the degree of hemorrhage and the severity of ulcerative lesions: 0=normal appearance, 1=mild red spots, 2=moderate red spots and/or hemorrhage spots, 3=marked hemorrhage spots. Reduction of concurrent vehicle control score values by 50 percent or more (≧50%) is considered significant. Test substances and vehicle control (2% TWEEN 80® in 0.9% NaCl solution) were each administered orally to test animals twice daily for 7 consecutive days. The Helicobacter pylori (1.5×10^9 CFU/0.4 ml/mouse) inoculation was applied one hour before the first dosing on day 1. […]

[2] = Pharmacokinetics study of intravenous injection with and without geranium oil; type: in vivo, mice
H. pylori (ATCC 43504) = assay: Minimum inhibitory concentration by agar dilution method; type: cell-based, Helicobacter pylori; parameters: key: scored positive (+) for inhibition/eradication of colonies growth; negative (−) for no effect upon growth colonies; settings: 0.3 μg/ml; 37° C., 72 hours, n=2
Description: Minimum inhibitory concentration is determined by the agar dilution method. 2 mg of test substance, composition of geranium oil and extracts from S. flavescenes prepared for injections (MIC-1), is dissolved and serially diluted in solvent (distilled water) to desired stock concentrations. For each concentration tested, a 10 μl aliquot is added to a 48-well plate containing 0.99 ml of Columbia agar base supplemented with 7% defibrinated rabbit blood. The inoculum of H. pylori (ATCC 43504) is prepared by suspending in brain heart infustion broth to a density of 5×10^8 CFU/ml. A multiprong-incubating device is used to place approximately 5×10^5 CFU/ml per spot onto the containing agent media. […] The plates are incubated at 37° C. for 72 hours in the microaerophilic condition (mixed gas N2 85%, CO2 10%, and O2 5%) and then visually examined and scored positive (+) for inhibition/eradication of colonies growth or negative (−) for no effect upon growth colonies. […] Each concentration is evaluated in duplicate.
Minimum inhibitory concentration is determined by the agar dilution method. […] The plates are incubated at 37° C. for 72 hours in the microaerophilic condition (mixed gas N2 85%, CO2 10%, and O2 5%) and then visually examined and scored positive (+) for inhibition/eradication of colonies growth or negative (−) for no effect upon growth colonies. […] Each concentration is evaluated in duplicate. […]

CC(C)=CCCC(C)CCO (centres unmarked) [MIC-20, citronellol]
Ulceration Score Total ([1]; N=5): 3
Ulceration Score Individual ([1]; mice 1-5, score 0-3): 0 (3×) and 2 and 1

O=C1CCC[C@@H]2[C@H]3CCCN4CCC[C@@H](CN12)[C@@H]34 [matrine]
effect of addition of geranium oil on absorption and metabolism (HPLC peak areas over time) ([2]; intravenous injection, mice, with geranium oil vs alone): increase the absorption and metabolism

O=C1CCC[C@@H]2[C@H]3CCC[N+]4([O-])CCC[C@@H](CN12)[C@@H]34 (some centres unmarked) [oxymatrine]
effect of addition of geranium oil on absorption and metabolism (HPLC peak areas over time) ([2]; mouse, in vivo, iv): increase the absorption and metabolism

gentamicin
Result (inhibition/eradication of colonies growth) (H. pylori (ATCC 43504)): +
